# Data published in patent US12539292B2, “BRM targeting compounds and associated methods of use” (Arvinas Operations, Inc., priority 2018, dated 2026).
# Like-named read-outs stand apart in the source and are kept apart here.
# Target: T1, BRM (Homo sapiens, UniProt P51531)
# T1 construct: In-Cell Western Screen of BRM Degradation in SW1573 Cells; endogenous in cells; host or cells: SW1573
# Experiment: In-cell Western screen of BRM degradation in SW1573 cells (Dmax and DC50)
# Type: cell-based
# Outline: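 SW1573 cells were treated with compound overnight (18-20 h; final DMSO 0.1%), then fixed in 4% PFA, permeabilized with Triton X-100 and blocked. BRM was detected by in-cell Western using 800 nm anti-rabbit and 680 nm anti-mouse secondaries, and Dmax and DC50 were derived from the LI-COR Odyssey signal.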
# [1] = BRM degradation, SW1573 cells, read-out: DC50
# [2] = BRM degradation, SW1573 cells, tested at the top concentration of between 0.3 and 10 μM, read-out: Dmax (%) (% degraded)
# [3] = target protein degradation, read-out: BRM DC50
# [4] = BRM degradation, SW1573 cells, when tested at the top concentration of between 0.3 and 10 μM, read-out: Dmax (%) (% degraded)
# T1 sequence (P51531 whole entry): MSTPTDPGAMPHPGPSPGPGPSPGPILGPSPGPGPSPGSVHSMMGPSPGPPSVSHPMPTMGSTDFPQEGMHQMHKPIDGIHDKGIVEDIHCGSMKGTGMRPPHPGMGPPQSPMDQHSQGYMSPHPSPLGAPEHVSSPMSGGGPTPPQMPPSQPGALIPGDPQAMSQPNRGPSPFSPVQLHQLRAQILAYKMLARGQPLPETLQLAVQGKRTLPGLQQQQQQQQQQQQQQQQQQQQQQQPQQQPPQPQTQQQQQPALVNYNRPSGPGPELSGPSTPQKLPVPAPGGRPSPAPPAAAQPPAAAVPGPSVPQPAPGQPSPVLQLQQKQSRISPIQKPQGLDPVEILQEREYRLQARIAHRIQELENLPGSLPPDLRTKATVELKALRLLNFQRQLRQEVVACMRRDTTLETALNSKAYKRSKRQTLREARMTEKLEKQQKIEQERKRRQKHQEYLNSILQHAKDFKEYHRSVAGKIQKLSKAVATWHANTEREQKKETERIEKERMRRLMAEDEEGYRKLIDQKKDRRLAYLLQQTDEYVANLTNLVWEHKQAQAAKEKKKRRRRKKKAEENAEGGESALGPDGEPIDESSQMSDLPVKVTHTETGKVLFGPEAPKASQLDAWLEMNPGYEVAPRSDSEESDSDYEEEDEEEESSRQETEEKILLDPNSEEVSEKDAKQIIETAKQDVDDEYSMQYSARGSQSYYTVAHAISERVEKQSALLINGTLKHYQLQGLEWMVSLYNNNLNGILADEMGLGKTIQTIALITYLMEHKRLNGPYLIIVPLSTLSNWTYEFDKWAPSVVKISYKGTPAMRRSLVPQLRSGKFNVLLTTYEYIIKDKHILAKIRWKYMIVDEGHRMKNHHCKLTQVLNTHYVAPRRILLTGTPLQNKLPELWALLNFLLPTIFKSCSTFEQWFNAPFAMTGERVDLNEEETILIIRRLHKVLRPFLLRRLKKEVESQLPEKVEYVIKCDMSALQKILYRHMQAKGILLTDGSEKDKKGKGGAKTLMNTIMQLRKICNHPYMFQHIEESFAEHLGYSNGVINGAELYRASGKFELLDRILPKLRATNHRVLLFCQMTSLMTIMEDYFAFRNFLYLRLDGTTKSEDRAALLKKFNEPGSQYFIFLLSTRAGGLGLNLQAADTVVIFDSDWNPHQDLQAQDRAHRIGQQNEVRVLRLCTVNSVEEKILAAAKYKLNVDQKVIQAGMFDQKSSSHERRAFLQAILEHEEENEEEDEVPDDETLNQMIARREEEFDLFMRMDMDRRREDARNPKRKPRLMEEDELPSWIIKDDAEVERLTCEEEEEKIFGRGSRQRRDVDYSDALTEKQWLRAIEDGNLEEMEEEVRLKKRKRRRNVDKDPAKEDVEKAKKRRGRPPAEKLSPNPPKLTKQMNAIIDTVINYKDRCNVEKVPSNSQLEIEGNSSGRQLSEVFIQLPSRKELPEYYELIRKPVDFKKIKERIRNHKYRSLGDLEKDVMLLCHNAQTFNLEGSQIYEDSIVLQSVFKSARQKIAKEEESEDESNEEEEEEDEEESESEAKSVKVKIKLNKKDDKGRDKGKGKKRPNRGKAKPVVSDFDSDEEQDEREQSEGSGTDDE
SMILES,DC50 [1] [nM],Dmax [2] [%],other results
"Cc1ncsc1-c1ccc([C@H](C)NC(=O)[C@@H]2C[C@@H](O)CN2C(=O)[C@H](c2cc(OCCN3CCC(O[C@H]4C[C@H](Oc5cc(N6C7CCC6CN(c6cc(-c8ccccc8O)nnc6N)C7)ccn5)C4)CC3)no2)C(C)C)c(F)c1 [compound 239, (2S,4R)-1-((2S)-2-(3-(2-(4-((1r,3S)-3-((4-(3-(3-amino-6-(2-hydroxyphenyl)pyridazin-4-yl)-3,8-diazabicyclo[3.2.1]octan-8-yl)pyridin-2-yl)oxy)cyclobutoxy)piperidin-1-yl)ethoxy)isoxazol-5-yl)-3-methylbutanoyl)-N-((S)-1-(2-fluoro-4-(4-methylthiazol-5-yl)phenyl)ethyl)-4-hydroxypyrrolidine-2-carboxamide]",> 30,> 75,
"Cc1cnc(C)n1-c1ccc([C@H](C)NC(=O)[C@@H]2C[C@@H](O)CN2C(=O)[C@H](c2cc(OCCN3CCC(O[C@H]4C[C@H](Oc5cc(N6C7CCC6CN(c6cc(-c8ccccc8O)nnc6N)C7)ccn5)C4)CC3)no2)C(C)C)cc1 [compound 375, (2S,4R)-1-((2S)-2-(3-(2-(4-((1r,3S)-3-((4-(3-(3-amino-6-(2-hydroxyphenyl)pyridazin-4-yl)-3,8-diazabicyclo[3.2.1]octan-8-yl)pyridin-2-yl)oxy)cyclobutoxy)piperidin-1-yl)ethoxy)isoxazol-5-yl)-3-methylbutanoyl)-N-((S)-1-(4-(2,5-dimethyl-1H-imidazol-1-yl)phenyl)ethyl)-4-hydroxypyrrolidine-2-carboxamide]",,,DC50 [3]: > 30 nM
"Cc1nccn1-c1ccc([C@H](C)NC(=O)[C@@H]2C[C@@H](O)CN2C(=O)[C@H](c2cc(OC/C=C/c3ccc(O[C@H]4C[C@H](Oc5cc(N6C7CCC6CN(c6cc(-c8ccccc8O)nnc6N)C7)ccn5)C4)cn3)no2)C(C)C)cc1 [compound 276, (2S,4R)-1-((2S)-2-(3-(((E)-3-(5-((1r,3S)-3-((4-(3-(3-amino-6-(2-hydroxyphenyl)pyridazin-4-yl)-3,8-diazabicyclo[3.2.1]octan-8-yl)pyridin-2-yl)oxy)cyclobutoxy)pyridin-2-yl)allyl)oxy)isoxazol-5-yl)-3-methylbutanoyl)-4-hydroxy-N-((S)-1-(4-(2-methyl-1H-imidazol-1-yl)phenyl)ethyl)pyrrolidine-2-carboxamide]",> 30,,
"Cc1ncsc1-c1ccc([C@H](C)NC(=O)[C@@H]2C[C@@H](O)CN2C(=O)[C@H](c2cc(OCC#Cc3ncc(O[C@H]4C[C@H](Oc5cc(N6C7CCC6CN(c6cc(-c8ccccc8O)nnc6N)C7)ccn5)C4)cn3)no2)C(C)C)cn1 [compound 399, (2S,4R)-1-((2S)-2-(3-((3-(5-((1r,3S)-3-((4-(3-(3-amino-6-(2-hydroxyphenyl)pyridazin-4-yl)-3,8-diazabicyclo[3.2.1]octan-8-yl)pyridin-2-yl)oxy)cyclobutoxy)pyrimidin-2-yl)prop-2-yn-1-yl)oxy)isoxazol-5-yl)-3-methylbutanoyl)-4-hydroxy-N-((S)-1-(6-(4-methylthiazol-5-yl)pyridin-3-yl)ethyl)pyrrolidine-2-carboxamide]",,,DC50 [3]: > 30 nM
"Cc1ncsc1-c1ccc([C@H](C)NC(=O)[C@@H]2C[C@@H](O)CN2C(=O)[C@@H](c2cc(OCCN3CCN(CCC#CCn4cc(-c5cc(-c6ccccc6O)nnc5N)cn4)CC3)no2)C(C)C)cc1 [compound 112, (2S,4R)-1-((R)-2-(3-(2-(4-(5-(4-(3-amino-6-(2-hydroxyphenyl)pyridazin-4-yl)-1H-pyrazol-1-yl)pent-3-yn-1-yl)piperazin-1-yl)ethoxy)isoxazol-5-yl)-3-methylbutanoyl)-4-hydroxy-N-((S)-1-(4-(4-methylthiazol-5-yl)phenyl)ethyl)pyrrolidine-2-carboxamide]",< 2.5,,Dmax [4]: > 75%
"Cc1ncsc1-c1ccc([C@H](C)NC(=O)[C@@H]2C[C@@H](O)CN2C(=O)[C@H](c2cc(OC/C=C/c3ccc(O[C@H]4C[C@H](Oc5cc(N6C7CCC6CN(c6cc(-c8ccccc8O)nnc6N)C7)ccn5)C4)cn3)no2)C(C)C)cn1 [compound 206, (2S,4R)-1-((2S)-2-(3-(((E)-3-(5-((1r,3S)-3-((4-(3-(3-amino-6-(2-hydroxyphenyl)pyridazin-4-yl)-3,8-diazabicyclo[3.2.1]octan-8-yl)pyridin-2-yl)oxy)cyclobutoxy)pyridin-2-yl)allyl)oxy)isoxazol-5-yl)-3-methylbutanoyl)-4-hydroxy-N-((S)-1-(6-(4-methylthiazol-5-yl)pyridin-3-yl)ethyl)pyrrolidine-2-carboxamide]",10 to 30,> 75,
"Cc1ncsc1-c1ccc(CNC(=O)[C@@H]2C[C@@H](O)CN2C(=O)[C@H](c2cc(OCCN3CCC(O[C@H]4C[C@H](Oc5cc(N6C7CCC6CN(c6cc(-c8ccccc8O)nnc6N)C7)ccn5)C4)CC3)no2)C(C)C)c(C#N)c1 [compound 224, (2S,4R)-1-((2S)-2-(3-(2-(4-((1r,3S)-3-((4-(3-(3-amino-6-(2-hydroxyphenyl)pyridazin-4-yl)-3,8-diazabicyclo[3.2.1]octan-8-yl)pyridin-2-yl)oxy)cyclobutoxy)piperidin-1-yl)ethoxy)isoxazol-5-yl)-3-methylbutanoyl)-N-(2-cyano-4-(4-methylthiazol-5-yl)benzyl)-4-hydroxypyrrolidine-2-carboxamide]",> 30,,
"Cc1ncsc1-c1ccc(CNC(=O)[C@@H]2C[C@@H](O)CN2C(=O)[C@@H](NC(=O)COCCOCCn2cc(-c3cc(-c4ccccc4O)nnc3N)cn2)C(C)(C)C)cc1 [compound 11, (2S,4R)-1-((S)-2-(2-(2-(2-(4-(3-amino-6-(2-hydroxyphenyl)pyridazin-4-yl)-1H-pyrazol-1-yl)ethoxy)ethoxy)acetamido)-3,3-dimethylbutanoyl)-4-hydroxy-N-(4-(4-methylthiazol-5-yl)benzyl)pyrrolidine-2-carboxamide]",> 30,,Dmax [4]: > 75%
"Cc1ncsc1-c1ccc([C@H](C)NC(=O)[C@@H]2C[C@@H](O)CN2C(=O)[C@@H](c2cc(OCC(=O)N3CCC(O[C@H]4C[C@H](Oc5cc(N6C7CCC6CN(c6cc(-c8ccccc8O)nnc6N)C7)ccn5)C4)CC3)no2)C(C)C)cn1 [compound 286, (2S,4R)-1-((2R)-2-(3-(2-(4-((1r,3R)-3-((4-(3-(3-amino-6-(2-hydroxyphenyl)pyridazin-4-yl)-3,8-diazabicyclo[3.2.1]octan-8-yl)pyridin-2-yl)oxy)cyclobutoxy)piperidin-1-yl)-2-oxoethoxy)isoxazol-5-yl)-3-methylbutanoyl)-4-hydroxy-N-((S)-1-(6-(4-methylthiazol-5-yl)pyridin-3-yl)ethyl)pyrrolidine-2-carboxamide]",2.5 to 10,> 75,
"Cc1ncsc1-c1ccc([C@H](C)NC(=O)[C@@H]2C[C@@H](O)CN2C(=O)[C@@H](c2onc(OCCN3CCN(CCOc4cc(N5C6CCC5CN(c5cc(-c7ccccc7O)nnc5N)C6)ccn4)CC3)c2F)C(C)C)cc1 [compound 114, (2S,4R)-1-((2R)-2-(3-(2-(4-(2-((4-(3-(3-amino-6-(2-hydroxyphenyl)pyridazin-4-yl)-3,8-diazabicyclo[3.2.1]octan-8-yl)pyridin-2-yl)oxy)ethyl)piperazin-1-yl)ethoxy)-4-fluoroisoxazol-5-yl)-3-methylbutanoyl)-4-hydroxy-N-((S)-1-(4-(4-methylthiazol-5-yl)phenyl)ethyl)pyrrolidine-2-carboxamide]",< 2.5,,Dmax [4]: > 75%
"Cc1ncsc1-c1ccc([C@H](C)NC(=O)[C@@H]2C[C@@H](O)CN2C(=O)[C@@H](c2cc(N3CCC4(CCCN(C[C@H]5C[C@H](Oc6cc(N7C8CCC7CN(c7cc(-c9ccccc9O)nnc7N)C8)ccn6)C5)C4)CC3)no2)C(C)C)cc1 [compound 660, (2S,4R)-1-((2R)-2-(3-(2-(((1r,3R)-3-((4-(3-(3-amino-6-(2-hydroxyphenyl)pyridazin-4-yl)-3,8-diazabicyclo[3.2.1]octan-8-yl)pyridin-2-yl)oxy)cyclobutyl)methyl)-2,9-diazaspiro[5.5]undecan-9-yl)isoxazol-5-yl)-3-methylbutanoyl)-4-hydroxy-N-((S)-1-(4-(4-methylthiazol-5-yl)phenyl)ethyl)pyrrolidine-2-carboxamide]",< 2.5,,"Dmax (BRM degradation, SW1573 cells, read-out: Dmax (% degraded)): > 75%"
"CC(C)[C@H](C(=O)N1C[C@H](O)C[C@H]1C(=O)N[C@@H](C)c1ccc(-c2c(F)cnn2C)cc1)c1cc(OCCN2CCN(CCOc3cc(N4C5CCC4CN(c4cc(-c6ccccc6O)nnc4N)C5)ccn3)CC2)no1 [compound 409, (2S,4R)-1-((2S)-2-(3-(2-(4-(2-((4-(3-(3-amino-6-(2-hydroxyphenyl)pyridazin-4-yl)-3,8-diazabicyclo[3.2.1]octan-8-yl)pyridin-2-yl)oxy)ethyl)piperazin-1-yl)ethoxy)isoxazol-5-yl)-3-methylbutanoyl)-N-((S)-1-(4-(4-fluoro-1-methyl-1H-pyrazol-5-yl)phenyl)ethyl)-4-hydroxypyrrolidine-2-carboxamide]",,,"DC50 (degradation of BRM, read-out: BRM DC50): > 30 nM"
"Cc1ncoc1-c1ccc([C@H](C)NC(=O)[C@@H]2C[C@@H](O)CN2C(=O)[C@H](c2cc(OCCN3CCC(O[C@H]4C[C@H](Oc5cc(N6C7CCC6CN(c6cc(-c8ccccc8O)nnc6N)C7)ccn5)C4)CC3)no2)C(C)C)cc1 [compound 212, (2S,4R)-1-((2S)-2-(3-(2-(4-((1r,3S)-3-((4-(3-(3-amino-6-(2-hydroxyphenyl)pyridazin-4-yl)-3,8-diazabicyclo[3.2.1]octan-8-yl)pyridin-2-yl)oxy)cyclobutoxy)piperidin-1-yl)ethoxy)isoxazol-5-yl)-3-methylbutanoyl)-4-hydroxy-N-((S)-1-(4-(4-methyloxazol-5-yl)phenyl)ethyl)pyrrolidine-2-carboxamide]",> 30,> 75,
